{"source": "patent US20240024273A1", "about": "“TOPICAL ADMINISTRATION OF 2-(DIETHYLAMINO)ETHYL 2-(4-ISOBUTYLPHENYL)PROPRIONATE FOR TREATMENT OF DISEASES” (TECHFIELDS PHARMA CO., LTD., priority 2020, published 2024)", "assay_type_in_all_cases": "in vivo, human", "key": {"[1]": {"tested_on": "osteoarthritis of the knee", "assay": "Second Phase 2 study: WOMAC (VAS) pain subscale score", "from_the_text": "(§1) This is a Phase 2, multicenter, randomized, double blind (within dose), Ibuprofen-placebo controlled, parallel group, dose range finding study to evaluate the efficacy, safety, and PK of 2-(diethylamino)ethyl 2-(4-isobutylphenyl)propionate spray in adult subjects with clinically symptomatic OA of the knee. For subjects with bilateral knee pain, both knees will be treated, but the most symptomatic knee (ie, the most painful knee as measured by the Western Ontario and McMaster University Osteoarthritis Index [WOMAC® 3.1] pain subscale score at Screening) will be designated as the target knee for efficacy analyses. For subjects with unilateral knee pain, only the symptomatic (target) knee will be treated.\n(§2) The VAS version of the WOMAC will be used for the Primary and Secondary Efficacy Endpoints. Efficacy endpoints will be assessed at Screening and Baseline (Day 1) and at the Week 2, Week 4, Week 8, and Week 12/EOS visits.\nThe Primary Efficacy Endpoint is the change from Baseline in the WOMAC (VAS) pain subscale score for the target knee at […] of treatment.\n(§3) 4.9.2. Secondary Efficacy Endpoints: • 1. Change from Baseline in the WOMAC (VAS) pain subscale score for the target knee at 2, 8, and 12 weeks of treatment; • 2. Change from Baseline in the WOMAC (VAS) stiffness subscale scores for the target knee and WOMAC (VAS) functional ability subscale scores at 2, 4, 8, and 12 weeks of treatment; • 3. Change from Baseline in the overall WOMAC (VAS) score at 2, 4, 8, and 12 weeks of treatment; • 4. Subject's global assessment of disease status of the target knee at 2, 4, 8, and 12 weeks of treatment; • 5. Subject's global assessment of response to therapy of the target knee at 2, 4, 8, and 12 weeks of treatment; • 6. Amount of rescue medication (acetaminophen) consumed per day for target knee pain.\nThe Primary Efficacy Endpoint is change from Baseline in the WOMAC (VAS) pain subscale score for the target knee at 4 weeks of treatment, and will be analyzed using an analysis of covariance (ANCOVA). Treatment will be included as a fixed class effect and WOMAC Baseline pain subscale score as covariates. The primary comparisons of interest will be the difference between active Group A (4.375 mg 2-(diethylamino)ethyl 2-(4-isobutylphenyl)propionate/knee) and combined placebo, active Group B (8.75 mg 2-(diethylamino)ethyl 2-(4-isobutylphenyl)propionate/knee) and combined placebo, and active Group C (17.5 mg 2-(diethylamino)ethyl 2-(4-isobutylphenyl)propionate/knee) and combined placebo."}, "[2]": {"tested_on": "osteoarthritis of the knee", "assay": "Second Phase 2 study: WOMAC difficulty performing daily activities (functional ability) subscale score", "from_the_text": "as §1, §2, §3\nThe Secondary Efficacy Endpoints, change from Baseline in the WOMAC subscale scores for pain, stiffness, and functional ability, and overall WOMAC score at 2, 4, 8, and 12 weeks of treatment, will be analyzed using the same methods as for the Primary Efficacy Endpoint."}, "[3]": {"tested_on": "osteoarthritis of the knee", "assay": "Second Phase 2 study: Subject's Global Assessment of Disease Status (SGADS)", "from_the_text": "as §3"}, "[4]": {"tested_on": "osteoarthritis of the knee", "assay": "Second Phase 2 study: Investigator's global assessment of disease status (IGADS)", "details": "Week 12"}, "[5]": {"details": "Baseline, oral, 3 × 400 mg (n = 20), first 130 subjects"}, "[6]": {"details": "Week 12, oral, 3 × 400 mg (n = 20), first 130 subjects"}, "[7]": {"details": "all subjects, Oral Ibuprofen 3 × 400 mg, n = 48, Week 12"}, "[8]": {"details": "all subjects, Oral Ibuprofen 3 × 400 mg, n = 48 vs. Placebo n = 48"}, "[9]": {"details": "oral 3×400 mg, first 130 subjects"}, "[10]": {"details": "oral, 3 x 400 mg (n = 20), first 130 subjects"}, "[11]": {"details": "all subjects, Oral Ibuprofen 3 × 400 mg, n = 48"}}, "data": [{"smiles": "CC(C)Cc1ccc(C(C)C(=O)O)cc1", "note": "(centres unmarked) [Ibuprofen, 2-(4-isobutylphenyl)propionic acid, reference compound]", "values": [{"measurement": "WOMAC Pain Subscale Scores, Baseline (LS Mean)", "setting": "[1]; [5]", "value": 67.0, "unit": "mm"}, {"measurement": "WOMAC Pain Subscale Scores, % of improvement from Placebo", "setting": "[1]; [6]", "value": 0.9, "unit": "%"}, {"measurement": "WOMAC Pain Subscale Scores, % of improvement from baseline", "setting": "[1]; [6]", "value": "−32.2", "unit": "%"}, {"measurement": "WOMAC Pain Subscale Scores, Changes from Baseline (LS Mean)", "setting": "[1]; [6]", "value": "−21.6", "unit": "mm"}, {"measurement": "WOMAC Pain Subscale Scores, Different from placebo (LS Mean)", "setting": "[1]; [6]", "value": "−0.5", "unit": "mm"}, {"measurement": "WOMAC Pain Subscale Scores, Week 12 (LS Mean)", "setting": "[1]; [6]", "value": 45.4, "unit": "mm"}, {"measurement": "WOMAC Pain Subscale Scores, % of improvement from Placebo", "setting": "[1]; [7]", "value": "−4.5", "unit": "%"}, {"measurement": "WOMAC Pain Subscale Scores, % of improvement from baseline", "setting": "[1]; [7]", "value": "−41.2", "unit": "%"}, {"measurement": "WOMAC Pain Subscale Scores, Changes from Baseline (LS Mean)", "setting": "[1]; [7]", "value": "−25.4", "unit": "mm"}, {"measurement": "WOMAC Pain Subscale Scores, Week 12 (LS Mean)", "setting": "[1]; [7]", "value": 36.3, "unit": "mm"}, {"measurement": "WOMAC Pain, difference vs. Placebo", "setting": "[1]; [8]", "value": "−2.8", "unit": "mm"}, {"measurement": "WOMAC pain, difference from placebo", "setting": "[1]; [9]", "value": "−0.5", "unit": "mm"}, {"measurement": "WOMAC Difficulty Performing Daily Activities Subscale Scores, Baseline (LS Mean)", "setting": "[2]; [5]", "value": 65.5, "unit": "mm"}, {"measurement": "WOMAC Difficulty Performing Daily Activities Subscale Scores, % of improvement from Placebo", "setting": "[2]; [6]", "value": "−3.3", "unit": "%"}, {"measurement": "WOMAC Difficulty Performing Daily Activities Subscale Scores, % of improvement from baseline", "setting": "[2]; [6]", "value": "−33.0", "unit": "%"}, {"measurement": "WOMAC Difficulty Performing Daily Activities Subscale Scores, Changes from Baseline (LS Mean)", "setting": "[2]; [6]", "value": "−21.6", "unit": "mm"}, {"measurement": "WOMAC Difficulty Performing Daily Activities Subscale Scores, Different from placebo (LS Mean)", "setting": "[2]; [6]", "value": "−3.5", "unit": "mm"}, {"measurement": "WOMAC Difficulty Performing Daily Activities Subscale Scores, Week 12 (LS Mean)", "setting": "[2]; [6]", "value": 43.9, "unit": "mm"}, {"measurement": "WOMAC Difficulty Performing Daily Activities Subscale Scores, % of improvement from Placebo", "setting": "[2]; [7]", "value": "−4.3", "unit": "%"}, {"measurement": "WOMAC Difficulty Performing Daily Activities Subscale Scores, % of improvement from baseline", "setting": "[2]; [7]", "value": "−41.5", "unit": "%"}, {"measurement": "WOMAC Difficulty Performing Daily Activities Subscale Scores, Changes from Baseline (LS Mean)", "setting": "[2]; [7]", "value": "−25.3", "unit": "mm"}, {"measurement": "WOMAC Difficulty Performing Daily Activities Subscale Scores, Week 12 (LS Mean)", "setting": "[2]; [7]", "value": 35.7, "unit": "mm"}, {"measurement": "WOMAC Functional Ability, difference vs. Placebo", "setting": "[2]; [8]", "value": "−3.4", "unit": "mm"}, {"measurement": "WOMAC functional ability, difference from placebo", "setting": "[2]; [9]", "value": "−3.5", "unit": "mm"}, {"measurement": "Subject’s Global Assessment of Disease Status Scores, Baseline (LS Mean)", "setting": "[3]; [5]", "value": 75.2, "unit": "mm"}, {"measurement": "Subject’s Global Assessment of Disease Status Scores, % of improvement from baseline", "setting": "[3]; [6]", "value": "−38.4", "unit": "%"}, {"measurement": "Subject’s Global Assessment of Disease Status Scores, % of improvement from placebo", "setting": "[3]; [6]", "value": "−2.0", "unit": "%"}, {"measurement": "Subject’s Global Assessment of Disease Status Scores, Changes from Baseline (LS Mean)", "setting": "[3]; [6]", "value": "−28.9", "unit": "mm"}, {"measurement": "Subject’s Global Assessment of Disease Status Scores, Different from placebo (LS Mean)", "setting": "[3]; [6]", "value": "−4.4", "unit": "mm"}, {"measurement": "Subject’s Global Assessment of Disease Status Scores, Week 12 (LS Mean)", "setting": "[3]; [6]", "value": 46.3, "unit": "mm"}, {"measurement": "Subject's Global Assessment of Disease Status Scores, % of improvement from Placebo", "setting": "[3]; [7]", "value": "−0.7", "unit": "%"}, {"measurement": "Subject's Global Assessment of Disease Status Scores, % of improvement from baseline", "setting": "[3]; [7]", "value": "−46.6", "unit": "%"}, {"measurement": "Subject's Global Assessment of Disease Status Scores, Changes from Baseline (LS Mean)", "setting": "[3]; [7]", "value": "−33.3", "unit": "mm"}, {"measurement": "Subject's Global Assessment of Disease Status Scores, Week 12 (LS Mean)", "setting": "[3]; [7]", "value": 38.1, "unit": "mm"}, {"measurement": "SGADS, difference vs. Placebo", "setting": "[3]; [8]", "value": "−2.9", "unit": "mm"}, {"measurement": "SGADS, difference from placebo", "setting": "[3]; [9]", "value": "−4.2", "unit": "mm"}, {"measurement": "IGADS: Good and Very good", "setting": "[4]; [10]", "value": 40.0, "unit": "%"}, {"measurement": "IGADS: Poor and Very Poor", "setting": "[4]; [10]", "value": 15.0, "unit": "%"}, {"measurement": "IGADS: fair", "setting": "[4]; [10]", "value": 45.0, "unit": "%"}, {"measurement": "IGADS, Good and Very good", "setting": "[4]; [11]", "value": 39.6, "unit": "%"}, {"measurement": "IGADS, Poor and Very Poor", "setting": "[4]; [11]", "value": 4.1, "unit": "%"}]}]}
